# Results taken from patent EP3753560A1, “COMPOUNDS FOR THE TREATMENT OF NEUROMUSCULAR DISORDERS” (NMD Pharma A/S, priority 2019, dated 2020).
# Assays:
# [1] = tested on: isolated rat soleus muscles; assay: Measurement of force in an in vitro model: recovery of nerve-stimulated contractile force of isolated soleus nerve-muscle preparations after tubocurarine; settings: for Point increase (%): percentage of the initial force restored, 50 µM test compound, after 40 mins of compound exposure, in continued presence of 115 nM tubocurarine (90 mins pre-incubation), 30°C
# Source text: • The terms "C1-3 alkyl" and "C1-5 alkyl" refers to a branched or unbranched alkyl group having from […] carbon atoms respectively, including but not limited to methyl, ethyl, prop-1-yl, prop-2-yl, 2-methyl-prop-1-yl, 2-methyl-prop-2-yl, 2,2-dimethyl-prop-1-yl, but-1-yl, but-2-yl, 3-methyl-but-1-yl, 3-methyl-but-2-yl, pent-1-yl, pent-2-yl and pent-3-yl. • The term "C3-5 cycloalkyl" and "C3-6 cycloalkyl" refers to a group having three to five or three to six carbon atoms respectively including a monocyclic or bicyclic carbocycle, including but not limited to cyclopropyl, cyclobutyl, cyclopentyl and cyclohexyl. • The term "C2-5 alkenyl" refers to a branched or unbranched alkenyl group having from two to five carbon atoms, two of which are connected by a double bond, including but not limited to ethenyl, propenyl, isopropenyl, butenyl, isobutenyl, pentenyl and isopentenyl. • The term "C2-5 alkynyl" refers to a branched or unbranched alkynyl group having from […] carbon atoms, two of which are connected by a triple bond, including but not limited to ethynyl, prop-1-ynyl, prop-2-ynyl, but-1-ynyl, but-2-ynyl, but-3-ynyl, buta-1,3-diynyl, pent-1-ynyl, pent-2-ynyl, pent-3-ynyl, pent-4-ynyl, penta-2,4-diynyl and penta-1,3-diynyl. • The term "5 membered aromatic heterocycle" refers to an aromatic group having five carbon atoms wherein between 1 and 3 carbon atoms in the ring have been replaced with a heteroatom selected from the group comprising nitrogen, sulphur and oxygen. Binding to the heterocycle may be at the position of the heteroatom or via a carbon atom of the heterocycle. […] The term "plasma half-life" is the time that it takes the compound to lose one-half of its pharmacologic activity in the blood plasma. • The term "treatment" refers to the combating of a disease or disorder. "Treatment" or "treating," as used herein, includes any desirable effect on the symptoms or pathology of a disease or condition as described herein, and may include even minimal changes or improvements in one or more measurable markers of the disease or condition being treated. […] In some embodiments, the term "treatment" encompasses amelioration and prevention. • The term "amelioration" refers to moderation in the severity of the symptoms of a disease or condition. Improvement in a patient's condition, or the activity of making an effort to correct, or at least make more acceptable, conditions that are difficult to endure related to patient's conditions is considered "ameliorative" treatment. • The term "prevent" or "preventing" refers to precluding, averting, obviating, forestalling, stopping, or hindering something from happening, especially by advance action. • The term "reversal" or "reversing" refers to the ability of a compound to restore nerve-stimulated force in skeletal muscle exposed either ex vivo or in vivo to a non-depolarizing neuromuscular blocking agent or another pharmaceutical that is able to depress neuromuscular transmission • The term "non-depolarizing blockers" refers to pharmaceutical agents that antagonize the activation of acetylcholine receptors at the post-synaptic muscle fibre membrane by blocking the acetylcholine binding site on the receptor.
# The current disclosure relates to compounds that inhibit CIC-1 ion channels and increase muscle excitability and thereby improve muscle function in clinical conditions where muscle activation is failing. Such conditions result in loss of contractile function of skeletal muscle, weakness and excessive fatigue. In this series of experiments the compounds were tested for their ability to restore contractile function of isolated rat muscle when the neuromuscular transmission had been compromised akin to neuromuscular disorders.
# Experimentally, soleus muscles from 4-5 wk old rats were isolated with the motor nerve remaining attached. […]
# human CIC-1 channels = target: T1, human CIC-1 channels (Homo sapiens, UniProt P35523); assay: Automated whole cell patch-clamp (Qpatch 16) on CHO cells expressing human CIC-1; type: cell-based; settings: difference in half activation voltage between cell patches treated intracellularly with compound and control (vehicle) patches; positive shift reflects CIC-1 inhibition
# T1 construct: host or cells: CHO (Chinese hamster ovary) cells, constitutive expression
# T1 sequence (P35523 whole entry): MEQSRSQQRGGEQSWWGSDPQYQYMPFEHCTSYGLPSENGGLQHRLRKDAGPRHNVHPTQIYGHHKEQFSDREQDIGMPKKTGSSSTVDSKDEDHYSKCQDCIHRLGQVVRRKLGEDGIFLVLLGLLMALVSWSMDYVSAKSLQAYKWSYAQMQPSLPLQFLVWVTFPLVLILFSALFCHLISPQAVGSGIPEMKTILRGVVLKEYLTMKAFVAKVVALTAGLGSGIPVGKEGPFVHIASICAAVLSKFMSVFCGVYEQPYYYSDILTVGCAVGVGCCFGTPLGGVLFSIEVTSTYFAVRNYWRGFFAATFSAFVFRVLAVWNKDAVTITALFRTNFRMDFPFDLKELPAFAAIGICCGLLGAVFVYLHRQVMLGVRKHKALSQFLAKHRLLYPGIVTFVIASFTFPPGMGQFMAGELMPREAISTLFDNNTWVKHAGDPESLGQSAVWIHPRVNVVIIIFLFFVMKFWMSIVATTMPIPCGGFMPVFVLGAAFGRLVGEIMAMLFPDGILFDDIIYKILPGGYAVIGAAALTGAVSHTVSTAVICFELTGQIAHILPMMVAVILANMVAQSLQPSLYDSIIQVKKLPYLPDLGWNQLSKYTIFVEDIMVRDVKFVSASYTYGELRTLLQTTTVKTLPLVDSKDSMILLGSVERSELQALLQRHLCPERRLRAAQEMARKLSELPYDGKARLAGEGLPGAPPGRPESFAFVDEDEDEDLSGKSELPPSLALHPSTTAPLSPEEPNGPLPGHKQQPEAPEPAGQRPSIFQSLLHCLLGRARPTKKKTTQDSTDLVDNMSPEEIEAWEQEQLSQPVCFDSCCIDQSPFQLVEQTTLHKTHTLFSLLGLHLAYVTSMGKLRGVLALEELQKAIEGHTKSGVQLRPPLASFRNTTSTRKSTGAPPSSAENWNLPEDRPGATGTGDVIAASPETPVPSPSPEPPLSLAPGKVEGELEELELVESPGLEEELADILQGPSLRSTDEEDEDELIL
# Method: Experiments were performed using an automated patch clamp system that allowed high throughput testing of whole cell patches together with both intracellular and extracellular addition of compound.
# Automated whole cell patch clamp experiments were performed with the Qpatch 16 system (Sophion Bioscience, Ballerup, Denmark) at room temperature. Data acquisition and analysis were performed in the Qassay software (ver. 5.6, Odense).
# To evoke CIC-1 currents in whole cell patches, the membrane potential was initially stepped from a holding potential of -30 mV to +60 mV for 100 ms and then to various test voltages (sweeps) ranging from +120 mV to -140 mV in steps of 20 mV for 300 ms. To obtain tail currents, the membrane potential was stepped to -100 mV after each test voltage for 300 ms and then relaxed to -30 mV for 2 sec between sweeps (Figure 2). I/V relationships for whole cell instant and steady state current amplitudes were obtained by plotting average current densities at the beginning and at the end of the 300 ms step against the membrane potential (Figure 3).
# In order to determine the relative overall open probability (P0), the instantaneous tail currents were normalized to the maximal tail current obtained following the most positive voltage step and plotted against the test voltage. […]
# To evaluate the compound effect on CIC-1, when applied directly to the intracellular side of the cell membrane, the half activation voltage, V1/2, was determined from whole cell patches with compound added to the intracellular solution and then compared to V1/2 determined from control cell patches with only vehicle added to the intracellular solution. Additionally, the effect of extracellular added compound was evaluated by determine V1/2 and steady state current amplitudes before and after exchanging the extracellular solution to contain compound.
# The difference in half activation voltage of CIC-1 channels, ΔV1/2, was determined as the difference between the cell patches treated intracellularly with compound and control cells patches and is reported in Table 4 below. […]
SMILES,Point increase (%) [1],ΔV1/2 (mV) (human CIC-1 channels),"average force (AUC) relative to initial force ([1]; Figure 1: 50 µM compound added after 90 min incubation in tubocurarine, 3 muscles)"
"O=C(O)Cn1cc(-c2ccon2)c2cc(Br)ccc21 [Compound A-12, 2-[5-bromo-3-(1,2-oxazol-3-yl)-1H-indol-1-yl]acetic acid]",13%,–,–
"CC(C(=O)O)n1ccc2cc(Br)ccc21 (stereo not drawn) [Compound A-25, 2-(5-bromo-1H-indol-1-yl)propanoic acid]",–,5.5 mV,–
"O=C(O)Cn1ccc2cc(Br)ccc21 [Compound A-24, 2-(5-bromo-1H-indol-1-yl)acetic acid]",10%,27.9 mV,–
"O=C(O)[C@@H]1CCc2cc(Br)cc(-c3ccon3)c2O1 (single isomer, unassigned) [Compound A-13]",24%,–,–
"O=C(O)[C@@H]1CCCN1c1ccc(Br)cc1F [Compound A-14, (2S)-1-(4-bromo-2-fluorophenyl)pyrrolidine-2-carboxylic acid]",26%,8.4 mV,–
"O=C(O)Cn1cc(-c2ccon2)c2cc(Cl)ccc21 [Compound A-4, 2-[5-chloro-3-(1,2-oxazol-3-yl)-1H-indol-1-yl]acetic acid]",12%,–,–
"O=C(O)C1CCc2cc(Br)cc(-c3ccon3)c2O1 (stereo not drawn) [Compound A-15, 6-bromo-8-(1,2-oxazol-3-yl)-3,4-dihydro-2H-1-benzopyran-2-carboxylic acid]",–,–,recovered
